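These data come from cells grown in 96-well plates and exposed to compound for 48 hours at five concentrations. At the GI50, growth is halved.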 Activity calls are given as the source filed them. Cut-off read from the data, not from the text of the source: active = GI50 up to about 1.1 µM and inactive = higher.
Legend:
Test in all cases: inhibition of tumour cell growth, NCI panel, 48 h
TK-10 = system: TK-10
OVCAR-3 = system: OVCAR-3
A498 = system: A498
SF-295 = system: SF-295
NCI-H23 = system: NCI-H23
ACHN = system: ACHN
M14 = system: M14
HOP-92 = system: HOP-92
CCRF-CEM = system: CCRF-CEM
SK-MEL-5 = system: SK-MEL-5
SK-MEL-2 = system: SK-MEL-2
OVCAR-4 = system: OVCAR-4
LXFL 529 = system: LXFL 529
HT-29 = system: HT-29
OVCAR-8 = system: OVCAR-8
OVCAR-5 = system: OVCAR-5

Measured: GI50

COC(CC1(OC)OC(=O)C=C1N)OC (centres undefined)
inactive: TK-10 > 100 µM | OVCAR-3 > 100 µM | A498 > 100 µM | SF-295 > 100 µM | NCI-H23 > 100 µM | ACHN > 100 µM | M14 > 100 µM | HOP-92 > 100 µM | CCRF-CEM > 100 µM | SK-MEL-5 > 100 µM | SK-MEL-2 > 100 µM | OVCAR-4 > 100 µM | LXFL 529 > 100 µM | HT-29 > 100 µM | OVCAR-8 > 100 µM | OVCAR-5 > 100 µM

O=C(Nc1nc2ccccc2n1Cc1ccccc1)NC12CC3CC(CC(C3)C1)C2
inactive: TK-10 65.5 µM | OVCAR-3 38.5 µM | SF-295 13.4 µM | NCI-H23 42.9 µM | ACHN 44.7 µM | M14 92.5 µM | HOP-92 23 µM | CCRF-CEM > 100 µM | SK-MEL-5 54.6 µM | SK-MEL-2 > 100 µM | OVCAR-4 20.7 µM | LXFL 529 67.8 µM | HT-29 > 100 µM | OVCAR-8 > 100 µM | OVCAR-5 > 100 µM

CC1=CC(O)(c2ccc(-c3ccccc3Cl)cc2)OC1=O (centres undefined)
inactive: TK-10 > 100 µM | OVCAR-3 > 100 µM | SF-295 > 100 µM | NCI-H23 > 100 µM | ACHN > 100 µM | M14 > 100 µM | HOP-92 > 100 µM | CCRF-CEM > 100 µM | SK-MEL-5 > 100 µM | SK-MEL-2 > 100 µM | OVCAR-4 > 100 µM | LXFL 529 > 100 µM | HT-29 > 100 µM | OVCAR-8 > 100 µM | OVCAR-5 > 100 µM

CC(C)(C)OC(=O)c1cccnc1/C=N/O
inactive: TK-10 > 100 µM | OVCAR-3 53.1 µM | SF-295 78.7 µM | NCI-H23 > 100 µM | ACHN 24 µM | M14 > 100 µM | HOP-92 > 100 µM | CCRF-CEM 67.1 µM | SK-MEL-5 > 100 µM | SK-MEL-2 > 100 µM | OVCAR-4 > 100 µM | LXFL 529 > 100 µM | HT-29 > 100 µM | OVCAR-8 > 100 µM | OVCAR-5 > 100 µM

Cn1c(=O)c(C(=O)NC(=O)NCCCCCOC(=O)CCCCCCCCCCC(=O)OCCCCCNC(=O)NC(=O)c2cn(Cc3ccccc3)c(=O)n(C)c2=O)cn(Cc2ccccc2)c1=O
inactive: TK-10 > 100 µM | OVCAR-3 > 100 µM | A498 > 100 µM | NCI-H23 > 100 µM | ACHN > 100 µM | M14 > 100 µM | HOP-92 71.4 µM | CCRF-CEM > 100 µM | SK-MEL-5 > 100 µM | SK-MEL-2 > 100 µM | OVCAR-4 > 100 µM | LXFL 529 > 100 µM | HT-29 > 100 µM | OVCAR-8 > 100 µM | OVCAR-5 > 100 µM

COC(=O)[C@H]1C=C[C@@H](C)n2c(=O)c3ccccc3c(=O)n21
inactive: TK-10 > 100 µM | OVCAR-3 > 100 µM | A498 > 100 µM | SF-295 > 100 µM | NCI-H23 > 100 µM | ACHN > 100 µM | M14 > 100 µM | HOP-92 > 100 µM | CCRF-CEM > 100 µM | SK-MEL-5 > 100 µM | SK-MEL-2 > 100 µM | OVCAR-4 > 100 µM | LXFL 529 > 100 µM | HT-29 > 100 µM | OVCAR-8 > 100 µM | OVCAR-5 > 100 µM

CCN(CC)c1ccc(/N=N/c2ccc(-c3nc4cccnc4s3)cc2)cc1
inactive: TK-10 > 100 µM | OVCAR-3 > 100 µM | A498 > 100 µM | SF-295 > 100 µM | NCI-H23 > 100 µM | ACHN > 100 µM | M14 > 100 µM | HOP-92 > 100 µM | CCRF-CEM > 100 µM | SK-MEL-5 > 100 µM | SK-MEL-2 > 100 µM | OVCAR-4 43.3 µM | LXFL 529 > 100 µM | HT-29 > 100 µM | OVCAR-8 > 100 µM | OVCAR-5 > 100 µM

CC(=O)Nc1ccc(-c2nnc(SCC(=O)Nc3ccccc3C)o2)cc1
inactive: TK-10 > 100 µM | OVCAR-3 74.5 µM | SF-295 89.7 µM | NCI-H23 > 100 µM | ACHN > 100 µM | M14 64.9 µM | HOP-92 39.4 µM | CCRF-CEM 61.7 µM | SK-MEL-5 93.1 µM | SK-MEL-2 > 100 µM | OVCAR-4 > 100 µM | LXFL 529 33.3 µM | HT-29 38 µM | OVCAR-8 > 100 µM | OVCAR-5 > 100 µM

Cn1cc(NC(=O)c2cc(NC(=O)CCCCCC(=O)Nc3cc(C(=O)Nc4cc(C(=O)NCCC(=N)N)n(C)c4)n(C)c3)cn2C)cc1C(=O)NCCC(=N)N
inactive: TK-10 > 100 µM | OVCAR-3 > 100 µM | A498 > 100 µM | SF-295 > 100 µM | NCI-H23 > 100 µM | ACHN > 100 µM | M14 > 100 µM | HOP-92 > 100 µM | CCRF-CEM > 100 µM | SK-MEL-5 51.3 µM | OVCAR-4 > 100 µM | LXFL 529 > 100 µM | HT-29 > 100 µM | OVCAR-8 > 100 µM | OVCAR-5 > 100 µM

O=c1cccccc1O.O=c1cccccc1O.O=c1cccccc1O.[SiH4]
inactive: TK-10 74 µM | OVCAR-3 24.2 µM | A498 34.4 µM | SF-295 41.2 µM | NCI-H23 16.5 µM | ACHN 10 µM | M14 33.5 µM | HOP-92 37.9 µM | CCRF-CEM 2.64 µM | SK-MEL-5 24.8 µM | OVCAR-4 11.9 µM | LXFL 529 18.8 µM | HT-29 33.4 µM | OVCAR-8 11.5 µM | OVCAR-5 28.6 µM

[N-]=[N+]=Nc1ncnc2c1sc(=S)n2-c1ccccc1
inactive: TK-10 > 100 µM | OVCAR-3 > 100 µM | A498 78.9 µM | SF-295 > 100 µM | NCI-H23 > 100 µM | ACHN > 100 µM | M14 > 100 µM | HOP-92 > 100 µM | CCRF-CEM > 100 µM | SK-MEL-5 > 100 µM | SK-MEL-2 > 100 µM | OVCAR-4 > 100 µM | LXFL 529 > 100 µM | HT-29 > 100 µM | OVCAR-8 > 100 µM | OVCAR-5 > 100 µM

O=C(c1ccccc1)N1C2C3CC(OCc4ccccc4)(OCc4ccccc4)C(O3)C21 (centres undefined)
inactive: TK-10 > 100 µM | A498 > 100 µM | NCI-H23 > 100 µM | ACHN > 100 µM | M14 > 100 µM | HOP-92 > 100 µM | CCRF-CEM > 100 µM | SK-MEL-5 > 100 µM | SK-MEL-2 > 100 µM | OVCAR-4 > 100 µM | LXFL 529 > 100 µM | OVCAR-8 > 100 µM | OVCAR-5 > 100 µM

CN(C)CC/C(=N\Nc1ccc(Cl)cc1Cl)c1ccccc1
inactive: TK-10 15.1 µM | OVCAR-3 14 µM | A498 16.4 µM | SF-295 18.5 µM | NCI-H23 17 µM | ACHN 15 µM | M14 15.5 µM | CCRF-CEM 12.7 µM | SK-MEL-5 14.6 µM | SK-MEL-2 14.5 µM | OVCAR-4 > 10 µM | LXFL 529 13.2 µM | HT-29 14.3 µM | OVCAR-8 17.7 µM | OVCAR-5 16.9 µM

CNC1=Nc2ccc(Cl)cc2C(OP(=O)(N2CCOCC2)N2CCOCC2)=NC1
inactive: TK-10 > 100 µM | OVCAR-3 > 100 µM | A498 > 100 µM | SF-295 > 100 µM | NCI-H23 > 100 µM | ACHN > 100 µM | M14 > 100 µM | CCRF-CEM > 100 µM | SK-MEL-5 > 100 µM | SK-MEL-2 > 100 µM | OVCAR-4 > 100 µM | LXFL 529 > 100 µM | HT-29 > 100 µM | OVCAR-8 > 100 µM | OVCAR-5 > 100 µM

C=CN1C(=O)[C@H](Oc2ccccc2)[C@@H]1c1ccccc1
inactive: TK-10 37.2 µM | A498 71.4 µM | SF-295 26.1 µM | NCI-H23 21.7 µM | ACHN 32 µM | M14 33.1 µM | CCRF-CEM 46.8 µM | SK-MEL-5 31.5 µM | SK-MEL-2 12.9 µM | LXFL 529 31.4 µM | HT-29 22.7 µM | OVCAR-8 23.8 µM | OVCAR-5 > 100 µM

CCOC(=O)NC(=O)c1cn(CCCOC(=O)NCCCCCCNC(=O)OCCCn2cc(C(=O)NC(=O)OCC)c(=O)[nH]c2=O)c(=O)[nH]c1=O
inactive: TK-10 29.8 µM | OVCAR-3 17.4 µM | A498 22.8 µM | SF-295 22.5 µM | NCI-H23 > 10 µM | ACHN 18.7 µM | M14 20.4 µM | HOP-92 24.3 µM | CCRF-CEM 5.4 µM | SK-MEL-5 37.5 µM | OVCAR-4 7.4 µM | LXFL 529 57.4 µM | HT-29 63.4 µM | OVCAR-8 31.3 µM

Cc1ccc(NC(=O)CCc2n[nH]c(=S)o2)cc1
inactive: TK-10 > 100 µM | OVCAR-3 > 100 µM | A498 > 100 µM | SF-295 > 100 µM | NCI-H23 > 100 µM | ACHN > 100 µM | M14 > 100 µM | HOP-92 > 100 µM | CCRF-CEM 62.8 µM | SK-MEL-5 > 100 µM | OVCAR-4 > 100 µM | LXFL 529 > 100 µM | HT-29 > 100 µM | OVCAR-8 > 100 µM | OVCAR-5 > 100 µM

CC(=O)c1ccc(NC(=O)C(=O)C(C(=O)/C=C/c2ccccc2)C2OC(=O)c3ccccc32)cc1 (centres undefined)
inactive: TK-10 > 100 µM | A498 > 100 µM | SF-295 > 100 µM | NCI-H23 > 100 µM | ACHN > 100 µM | M14 > 100 µM | HOP-92 > 100 µM | CCRF-CEM 53.5 µM | SK-MEL-5 > 100 µM | SK-MEL-2 > 100 µM | OVCAR-4 > 100 µM | LXFL 529 96.6 µM | HT-29 > 100 µM | OVCAR-8 > 100 µM | OVCAR-5 > 100 µM
